Reference: patent US11452758B2, “Antimicrobial peptide derived from LL37 peptide and uses thereof” (INDUSTRY-ACADEMIC COOPERATION FOUNDATION, CHOSUN UNIVERSITY, priority 2018, dated 2022)
≈ marks a conversion by molar mass, not a printed value. Like-named read-outs stand apart in the source and are kept apart here. Where a SMILES comes first, the peptide text is derived from it.

Columns and labels:
[1] = test system: S. aureus ATCC 25923; format: cell-based, Staphylococcus aureus
From the text: (§1) To compare the antimicrobial activity among the peptides produced by the method of Example 1, the inventors of the present invention measured the minimal growth inhibitory concentration (MIC), which is minimum concentration of the peptide not allowing any […] of bacterial cells.
(§2) Specifically, the bacterial strains described in the following Table 2 were purchased and cultured to a mid-log phase in MHB (Mueller Hinton Broth) medium. Then, after dilution to bacterial cell concentration of 2×10^5 cells/50 μl, the cells were inoculated to a microtiter plate (NUNC, USA). Thereafter, LL37-1, LL37-2, LL37-3 or LL37-4 peptide which has been synthesized in Example 1 above was subjected to serial dilution, ½ times for each, in a 96-well plate. After adding the peptides in an amount of 50 μl to the cell plate, the cells were cultured for 18 hours at 37° C. By using a microtiter plate reader (Merck Elisa reader, Germany), the absorbance was measured at a wavelength of 600 nm to determine the MIC value of each bacterial strain. As a control group, LL37 as a mother peptide was used and subjected to the same process as above to determine the MIC value of each strain.

[2] = test system: E. coli ATCC 25922; format: cell-based, Escherichia coli
From the text: as §1, §2

[3] = test system: P. aeruginosa ATCC 27853; format: cell-based, Pseudomonas aeruginosa
From the text: as §1, §2

[4] = test system: S. typhimurium KCTC 1925; format: cell-based, Salmonella typhimurium
From the text: as §1, §2

[5] = Cytotoxicity in normal cell line (MTT); format: cell-based, human; details: human
Protocol: (§3) To determine the cytotoxicity of the peptides produced by the method of Example 1 in normal cell line, cytotoxicity was measured by using normal human keratinocyte cell line (HaCaT) and normal human fibroblast cell line (Hs27).
(§4) Specifically, normal human keratinocyte (HaCaT) cells and normal human fibroblast (Hs27) cells, which have been cultured in DMEM medium containing 10% FBS (fetal bovine serum), were aliquoted in a microtiter plate to have 1×10^4 cells per well. After culturing them for 24 hours, the cells were subjected to a treatment with LL37, LL37-1, LL37-2, LL37-3 or LL37-4 peptide, each at concentration of 0.5, 1, 2, 4, 8, 16 or 32 μM/well, followed by reaction for 24 hours in a 5% CO2 incubator. After culture, a reaction solution containing 5 mg/ml MTT (Thiazolyl Blue Tetrazolium Bromide) dissolved in phosphate buffered saline (PBS) was added in an amount of 10 μl to each well and the reaction was allowed to occur for 1 hour. After that, the supernatant was discarded, and, by dissolving MTT crystals that are formed by adding 200 μl DMSO (dimethyl sulfoxide), the absorbance at 570 nm was measured to determine the cell survival ability.

[6] = test system: Acinetobacter baumannii KCTC 2508; format: cell-based; details: for antimicrobial activity after reaction with trypsin: peptide 100 μg/ml with 10.7 nM trypsin, 10 minutes at 37° C., A. baumannii KCTC 2508
Protocol: To determine the activity of the peptides, which have been prepared by the method of Example 1, in the presence of trypsin as one type of proteases, peptide stability against protease was determined by radial diffusion assay.
Specifically, among the bacterial strains that are described in the above Table 2, Acinetobacter baumannii KCTC 2508 cells were cultured to a mid-log phase in MHB medium, and, after diluting the cells to a cell concentration of 2×10^5 cells/10 ml, the cells were admixed with agarose which has been adjusted to final concentration of 1% and then evenly spread and solidified on a Petri dish. After that, the peptide adjusted to a concentration of 100 μg/ml was admixed with 10.7 nM trypsin and reacted for 10 minutes at 37° C. After applying a paper disk (diameter: 6 mm) on the solidified Petri dish, the peptide obtained after the reaction with trypsin was aliquoted thereto in an amount of 25 μl. After culture for 18 hours at 37° C., diameter of the clear zone around the paper disk was measured so that the level of antimicrobial activity for Acinetobacter baumannii KCTC 2508 was determined.

[7] = test system: Acinetobacter baumannii KCTC 2508; test: Flow cytometry after PI staining (bacteria membrane); format: cell-based; details: peptide at concentration of MIC, 30 minutes at 37° C.
Protocol: To determine whether or not the peptides prepared by the method of Example 1 have any effect on bacteria membrane, an analysis was made by flow cytometry.
After that, the supernatant was removed by centrifuge (10,000 rpm) and stained with propidium iodide (PI, concentration of 10 μg/ml) for 30 minutes at 4° C. Thereafter, unbound propidium iodide was removed by centrifuge, and the problem of cell aggregation phenomenon was solved by adding physiological saline (PBS) in an amount of 1 ml.

[8] = test system: Human macrophage cells (U937) infected with Acinetobacter baumannii KCTC 2508; test: Expression of inflammatory cytokines, Western blot and real time RT-PCR; format: cell-based; details: U937 infected with A. baumannii KCTC 2508, peptide added 1 hour after infection, sample after 9 hours
Protocol: To see whether or not a change in expression of inflammatory cytokines in macrophage is caused by the peptides that are prepared by the method of above Example 1, determination was made by Western blot and real time reverse transcription polymerase chain reaction.
Specifically, Acinetobacter baumannii KCTC 2508 cells were cultured to a mid-log phase in MHB medium, and then diluted to a cell concentration of 1×10^7 cells/ml in physiological saline. Human macrophage cells (U937) were then infected with the resulting cells in time-dependent manner to yield the first sample, and another macrophage cells were infected with Acinetobacter baumannii KCTC 2508 cells, which have been diluted to a concentration of 1×10^7 cells, and added with, 1 hour after the infection, mother peptide LL37 or the homologous peptide to collect the second sample after 9 hours. Both collected samples were treated with cell lysis buffer to obtain the supernatant (sup) and pellet (lysate). Thereafter, by Western blot and real time reverse transcription polymerase chain reaction, a change in the expression level of inflammatory cytokines was examined.

[9] = test system: normal human fibroblast cell line (Hs27); test: Cytotoxicity in normal cell line (MTT); format: cell-based; details: Hs27; peptide 32 μM; 24 hours; MTT
Protocol: as §3, §4

[10] = test system: normal human keratinocyte cell line (HaCaT); test: Cytotoxicity in normal cell line (MTT); format: cell-based; details: HaCaT; peptide 32 μM; 24 hours; MTT
Protocol: as §3, §4

Row | SMILES | Minimal inhibitory concentration ([1]; ATCC 25923, 18 h) [µM] | Minimal inhibitory concentration ([2]; ATCC 25922, 18 h) [µM] | Minimal inhibitory concentration ([3]; ATCC 27853, 18 h) [µM] | Minimal inhibitory concentration ([4]; KCTC 1925, 18 h) [µM] | viability at 24 h, 0.5 µM ([5]; HaCaT keratinocyte cells) [%] | viability at 24 h, 1 µM ([5]; HaCaT keratinocyte cells) [%] | viability at 24 h, 2 µM ([5]; HaCaT keratinocyte cells) [%] | viability at 24 h, 4 µM ([5]; HaCaT keratinocyte cells) [%] | viability at 24 h, 8 µM ([5]; HaCaT keratinocyte cells) [%] | viability at 24 h, 16 µM ([5]; HaCaT keratinocyte cells) [%] | viability at 24 h, 32 µM ([5]; HaCaT keratinocyte cells) [%] | viability at 24 h, 0.5 µM ([5]; Hs27 fibroblast cells) [%] | viability at 24 h, 1 µM ([5]; Hs27 fibroblast cells) [%] | viability at 24 h, 2 µM ([5]; Hs27 fibroblast cells) [%] | viability at 24 h, 4 µM ([5]; Hs27 fibroblast cells) [%] | viability at 24 h, 8 µM ([5]; Hs27 fibroblast cells) [%] | viability at 24 h, 16 µM ([5]; Hs27 fibroblast cells) [%] | viability at 24 h, 32 µM ([5]; Hs27 fibroblast cells) [%] | antimicrobial activity after reaction with trypsin [6] | effect on bacteria membrane (PI fluorescence, flow cytometry) [7] | also measured
1 | CC[C@H](C)[C@H](NC(=O)[C@H](CCCCN)NC(=O)[C@H](CCC(=O)O)NC(=O)[C@H](CCCCN)NC(=O)[C@H](CO)NC(=O)[C@H](CCCCN)NC(=O)[C@H](CCCNC(=N)N)NC(=O)[C@H](Cc1ccccc1)NC(=O)[C@H](Cc1ccccc1)NC(=O)[C@H](CC(=O)O)NC(=O)CNC(=O)[C@H](CC(C)C)NC(=O)[C@@H](N)CC(C)C)C(=O)NCC(=O)N[C@@H](CCCCN)C(=O)N[C@@H](CCC(=O)O)C(=O)N[C@@H](Cc1ccccc1)C(=O)N[C@@H](CCCCN)C(=O)N[C@@H](CCCNC(=N)N)C(=O)N[C@H](C(=O)N[C@H](C(=O)N[C@@H](CCC(N)=O)C(=O)N[C@@H](CCCNC(=N)N)C(=O)N[C@H](C(=O)N[C@@H](CCCCN)C(=O)N[C@@H](CC(=O)O)C(=O)N[C@@H](Cc1ccccc1)C(=O)N[C@@H](CC(C)C)C(=O)N[C@@H](CCCNC(=N)N)C(=O)N[C@@H](CC(N)=O)C(=O)N[C@@H](CC(C)C)C(=O)N[C@H](C(=O)N1CCC[C@H]1C(=O)N[C@@H](CCCNC(=N)N)C(=O)N[C@H](C(=O)N[C@@H](CCC(=O)O)C(=O)N[C@@H](CO)C(N)=O)[C@@H](C)O)C(C)C)[C@@H](C)CC)C(C)C)[C@@H](C)CC [LL37] | 16 (≈ 71.9 µg/mL) | 32 (≈ 144 µg/mL) | 8 (≈ 35.9 µg/mL) | 32 (≈ 144 µg/mL) | 99 | 99 | 96 | 98 | 99 | 83 | 17 | 95 | 90 | 90 | 89 | 90 | 82 | 19 | did not exhibit any antimicrobial activity | bacteria membrane was damaged | expression level of HMGB-1 and late cytokine (IL-1b and TNF-α) [8]: has increased more
2 | CC[C@H](C)[C@H](NC(=O)[C@H](CCCNC(=N)N)NC(=O)[C@H](CCC(N)=O)NC(=O)[C@@H](NC(=O)[C@@H](NC(=O)[C@H](CCCNC(=N)N)NC(=O)[C@H](CCCCN)NC(=O)[C@H](Cc1ccccc1)NC(=O)[C@H](CCCCN)NC(=O)[C@@H](N)CCCCN)[C@@H](C)CC)C(C)C)C(=O)N[C@@H](CCCCN)C(=O)N[C@@H](CCCCN)C(=O)N[C@@H](Cc1ccccc1)C(=O)N[C@@H](CC(C)C)C(=O)N[C@@H](CCCNC(=N)N)C(=O)N[C@@H](CC(N)=O)C(N)=O [LL37-4, KKFKRIVQRIKKFLRN-NH2] (H-KKFKRIVQRIKKFLRN-NH2; N-terminus assumed) | 2 (≈ 4.2 µg/mL) | 16 (≈ 33.6 µg/mL) | 4 (≈ 8.41 µg/mL) | 4 (≈ 8.41 µg/mL) | 100 | 103 | 97 | 96 | 92 | 94 | 101 | 94 | 94 | 97 | 90 | 93 | 96 | 93 | showed the antimicrobial activity | bacteria membrane was damaged | decrease in clear zone compared to no treatment with trypsin ([6]; KCTC 2508, 18 h): 1.75 mm; expression level of HMGB-1 and late cytokine (IL-1b and TNF-α) [8]: increase in expression level of HMGB-1 and late cytokine is lower
3 | CC[C@H](C)[C@H](NC(=O)[C@H](CCCNC(=N)N)NC(=O)[C@H](CCC(N)=O)NC(=O)[C@@H](NC(=O)[C@@H](NC(=O)[C@H](CCCNC(=N)N)NC(=O)[C@H](CCCCN)NC(=O)[C@H](Cc1ccccc1)NC(=O)[C@H](CCCCN)NC(=O)[C@@H](N)CCCCN)[C@@H](C)CC)C(C)C)C(=O)N[C@@H](CCCCN)C(=O)N[C@@H](CC(=O)O)C(=O)N[C@@H](Cc1ccccc1)C(=O)N[C@@H](CC(C)C)C(=O)N[C@@H](CCCNC(=N)N)C(=O)N[C@@H](CC(N)=O)C(N)=O [LL37-2, KKFKRIVQRIKDFLRN-NH2] (H-KKFKRIVQRIKDFLRN-NH2) |  |  |  |  |  |  |  |  |  |  |  |  |  |  |  |  |  |  |  |  | Minimal inhibitory concentration ([1]; S. aureus ATCC 25923, MHB, 18 hours at 37° C.): 2 µM (≈ 4.18 µg/mL); Minimal inhibitory concentration ([2]; E. coli ATCC 25922, MHB, 18 hours at 37° C.): 16 µM (≈ 33.4 µg/mL); Minimal inhibitory concentration ([3]; P. aeruginosa ATCC 27853, MHB, 18 hours at 37° C.): 8 µM (≈ 16.7 µg/mL); Minimal inhibitory concentration ([4]; S. typhimurium KCTC 1925, MHB, 18 hours at 37° C.): 4 µM (≈ 8.35 µg/mL); viability at 24 h, 0.5 µM ([5]; HaCaT keratinocyte cells, HaCaT, peptide 0.5 μM, 24 hours, MTT, read-out: Cell survival ability): 100%; viability at 24 h, 1 µM ([5]; HaCaT keratinocyte cells, HaCaT, peptide 1 μM, 24 hours, MTT, read-out: Cell survival ability): 106%; viability at 24 h, 2 µM ([5]; HaCaT keratinocyte cells, HaCaT, peptide 2 μM, 24 hours, MTT, read-out: Cell survival ability): 104%; viability at 24 h, 4 µM ([5]; HaCaT keratinocyte cells, HaCaT, peptide 4 μM, 24 hours, MTT, read-out: Cell survival ability): 102%; viability at 24 h, 8 µM ([5]; HaCaT keratinocyte cells, HaCaT, peptide 8 μM, 24 hours, MTT, read-out: Cell survival ability): 101%; viability at 24 h, 16 µM ([5]; HaCaT keratinocyte cells, HaCaT, peptide 16 μM, 24 hours, MTT, read-out: Cell survival ability): 107%; viability at 24 h, 32 µM ([5]; HaCaT keratinocyte cells, HaCaT, peptide 32 μM, 24 hours, MTT, read-out: Cell survival ability): 107%; viability at 24 h, 0.5 µM ([5]; Hs27 fibroblast cells, Hs27, peptide 0.5 μM, 24 hours, MTT, read-out: Cell survival ability): 92%; viability at 24 h, 1 µM ([5]; Hs27 fibroblast cells, Hs27, peptide 1 μM, 24 hours, MTT, read-out: Cell survival ability): 92%; viability at 24 h, 2 µM ([5]; Hs27 fibroblast cells, Hs27, peptide 2 μM, 24 hours, MTT, read-out: Cell survival ability): 94%; viability at 24 h, 4 µM ([5]; Hs27 fibroblast cells, Hs27, peptide 4 μM, 24 hours, MTT, read-out: Cell survival ability): 91%; viability at 24 h, 8 µM ([5]; Hs27 fibroblast cells, Hs27, peptide 8 μM, 24 hours, MTT, read-out: Cell survival ability): 89%; viability at 24 h, 16 µM ([5]; Hs27 fibroblast cells, Hs27, peptide 16 μM, 24 hours, MTT, read-out: Cell survival ability): 93%; viability at 24 h, 32 µM ([5]; Hs27 fibroblast cells, Hs27, peptide 32 μM, 24 hours, MTT, read-out: Cell survival ability): 97%; Cell survival ability [9]: 97%; Cell survival ability [10]: 107%
